Assay: xn = mol fraction of the nth substance listed
Details: Liquid; for binary diffusion coefficient: Open capillary; for mass density: Pycnometric method

CCCC[N+]1(C)CCCC1.O=S(=O)([N-]S(=O)(=O)C(F)(F)F)C(F)(F)F + O=C=O
Details | binary diffusion coefficient [m2/s] | mass density [kg/m3]
298.15 K, 100 kPa, x2 = 0.2 | 1.3e-10 | –
298.15 K, 996 kPa, x2 = 0.199 | – | 1385
298.15 K, 1000 kPa, x2 = 0.2 | 1.6e-10 | –
298.15 K, 1997 kPa, x2 = 0.379 | – | 1377
298.15 K, 2000 kPa, x2 = 0.2 | 3e-10 | –
298.15 K, 2502 kPa, x2 = 0.449 | – | 1371
298.15 K, 3031 kPa, x2 = 0.51 | – | 1361
298.15 K, 3511 kPa, x2 = 0.559 | – | 1351
298.15 K, 4013 kPa, x2 = 0.602 | – | 1348
298.15 K, 4504 kPa, x2 = 0.638 | – | 1345
298.15 K, 5002 kPa, x2 = 0.674 | – | 1339
298.15 K, 5512 kPa, x2 = 0.702 | – | 1336
298.15 K, 6040 kPa, x2 = 0.728 | – | 1326
298.15 K, 6378 kPa, x2 = 0.745 | – | 1330
318.15 K, 1005 kPa, x2 = 0.156 | – | 1387
318.15 K, 2046 kPa, x2 = 0.311 | – | 1391
318.15 K, 3019 kPa, x2 = 0.436 | – | 1389
318.15 K, 4000 kPa, x2 = 0.528 | – | 1397
318.15 K, 6033 kPa, x2 = 0.638 | – | 1380
318.15 K, 8002 kPa, x2 = 0.714 | – | 1378
318.2 K, 100 kPa, x2 = 0.15 | 2.2e-10 | –
318.2 K, 1000 kPa, x2 = 0.15 | 2.9e-10 | –
318.2 K, 2000 kPa, x2 = 0.15 | 3.3e-10 | –
338.15 K, 1019 kPa, x2 = 0.123 | – | 1368
338.15 K, 2011 kPa, x2 = 0.23 | – | 1358
338.15 K, 2520 kPa, x2 = 0.301 | – | 1369
338.15 K, 3004 kPa, x2 = 0.345 | – | 1369
338.15 K, 4000 kPa, x2 = 0.435 | – | 1371
338.15 K, 5007 kPa, x2 = 0.495 | – | 1380
338.15 K, 6020 kPa, x2 = 0.537 | – | 1357
338.15 K, 7504 kPa, x2 = 0.606 | – | 1348
338.15 K, 10012 kPa, x2 = 0.682 | – | 1349
338.15 K, 12486 kPa, x2 = 0.712 | – | 1384
338.15 K, 14895 kPa, x2 = 0.728 | – | 1387

CCCCCC[N+]1(C)CCCC1.O=S(=O)([N-]S(=O)(=O)C(F)(F)F)C(F)(F)F + O=C=O
Details | binary diffusion coefficient [m2/s] | mass density [kg/m3]
298.15 K, 100 kPa, x2 = 0.2 | 1.6e-10 | –
298.15 K, 1000 kPa, x2 = 0.2 | 2.4e-10 | –
298.15 K, 1004 kPa, x2 = 0.236 | – | 1360
298.15 K, 2000 kPa, x2 = 0.2 | 4e-10 | –
298.15 K, 2030 kPa, x2 = 0.403 | – | 1354
298.15 K, 2493 kPa, x2 = 0.484 | – | 1343
298.15 K, 3003 kPa, x2 = 0.531 | – | 1345
298.15 K, 3496 kPa, x2 = 0.577 | – | 1336
298.15 K, 3999 kPa, x2 = 0.614 | – | 1324
298.15 K, 4496 kPa, x2 = 0.653 | – | 1308
298.15 K, 4998 kPa, x2 = 0.683 | – | 1299
298.15 K, 5521 kPa, x2 = 0.716 | – | 1294
298.15 K, 5995 kPa, x2 = 0.738 | – | 1281
298.15 K, 6387 kPa, x2 = 0.751 | – | 1263
318.15 K, 1005 kPa, x2 = 0.179 | – | 1346
318.15 K, 2021 kPa, x2 = 0.315 | – | 1332
318.15 K, 2513 kPa, x2 = 0.366 | – | 1315
318.15 K, 2996 kPa, x2 = 0.416 | – | 1323
318.15 K, 4039 kPa, x2 = 0.515 | – | 1311
318.15 K, 6032 kPa, x2 = 0.632 | – | 1301
318.15 K, 7998 kPa, x2 = 0.72 | – | 1291
318.15 K, 9884 kPa, x2 = 0.783 | – | 1345
318.2 K, 100 kPa, x2 = 0.15 | 2.3e-10 | –
318.2 K, 1000 kPa, x2 = 0.15 | 3.8e-10 | –
318.2 K, 1800 kPa, x2 = 0.15 | 3.8e-10 | –
338.15 K, 1001 kPa, x2 = 0.118 | – | 1307
338.15 K, 2028 kPa, x2 = 0.264 | – | 1315
338.15 K, 2537 kPa, x2 = 0.293 | – | 1311
338.15 K, 3030 kPa, x2 = 0.346 | – | 1310
338.15 K, 4022 kPa, x2 = 0.443 | – | 1313
338.15 K, 5027 kPa, x2 = 0.508 | – | 1311
338.15 K, 6014 kPa, x2 = 0.561 | – | 1307
338.15 K, 7501 kPa, x2 = 0.637 | – | 1310
338.15 K, 10006 kPa, x2 = 0.706 | – | 1319
338.15 K, 12478 kPa, x2 = 0.752 | – | 1325
338.15 K, 14944 kPa, x2 = 0.771 | – | 1341

CCC[N+]1(C)CCCC1.O=S(=O)([N-]S(=O)(=O)C(F)(F)F)C(F)(F)F + O=C=O
Details | binary diffusion coefficient [m2/s] | mass density [kg/m3]
298.15 K, 100 kPa, x2 = 0.2 | 1.3e-10 | –
298.15 K, 1000 kPa, x2 = 0.2 | 1.8e-10 | –
298.15 K, 1009 kPa, x2 = 0.236 | – | 1464
298.15 K, 2000 kPa, x2 = 0.2 | 2.4e-10 | –
298.15 K, 2028 kPa, x2 = 0.389 | – | 1420
298.15 K, 3030 kPa, x2 = 0.503 | – | 1411
298.15 K, 3507 kPa, x2 = 0.553 | – | 1408
298.15 K, 4038 kPa, x2 = 0.598 | – | 1401
298.15 K, 4517 kPa, x2 = 0.632 | – | 1390
298.15 K, 5014 kPa, x2 = 0.661 | – | 1386
298.15 K, 5505 kPa, x2 = 0.688 | – | 1385
298.15 K, 6003 kPa, x2 = 0.709 | – | 1373
298.15 K, 6397 kPa, x2 = 0.725 | – | 1363
318.15 K, 1055 kPa, x2 = 0.185 | – | 1441
318.15 K, 2223 kPa, x2 = 0.323 | – | 1437
318.15 K, 4005 kPa, x2 = 0.471 | – | 1407
318.15 K, 5004 kPa, x2 = 0.528 | – | 1392
318.15 K, 6004 kPa, x2 = 0.575 | – | 1374
318.15 K, 7010 kPa, x2 = 0.621 | – | 1356
318.15 K, 8010 kPa, x2 = 0.664 | – | 1366
318.15 K, 16527 kPa, x2 = 0.731 | – | 1385
318.15 K, 19966 kPa, x2 = 0.751 | – | 1406
318.2 K, 100 kPa, x2 = 0.15 | 2.7e-10 | –
318.2 K, 1000 kPa, x2 = 0.15 | 3e-10 | –
318.2 K, 2000 kPa, x2 = 0.15 | 3.7e-10 | –
338.15 K, 1009 kPa, x2 = 0.065 | – | 1400
338.15 K, 2002 kPa, x2 = 0.198 | – | 1405
338.15 K, 2508 kPa, x2 = 0.249 | – | 1393
338.15 K, 3007 kPa, x2 = 0.328 | – | 1408
338.15 K, 4008 kPa, x2 = 0.413 | – | 1404
338.15 K, 4999 kPa, x2 = 0.474 | – | 1427
338.15 K, 6006 kPa, x2 = 0.536 | – | 1430
338.15 K, 7503 kPa, x2 = 0.612 | – | 1435
